Laboratory results: patent US20120135009A1, “Cleaved and Phosphorylated CRMP2 as Blood Marker of Inflammatory Diseases of the Central Nervous System” (priority 2009, published 2012)

Tested on: Jurkat T-cells
Assay: CRMP2 polarization in Jurkat cells adhering to collagen I-coated slides (immunofluorescence)
Type: cell-based
Method: The CRMP2 forms, Yes kinase and intermediary filament vimentin were detected by indirect immunofluorescence on Jurkat and primary T-cells adhered to collagen I-coated slides (20 μg/ml) and fixed following treatment (acetone −20° C.; 10 min). Cells were incubated with specific antibody (1 h, 37° C.) then with Alexa 488- or 546-conjugated anti-mouse or anti-rabbit or anti-sheep IgG antibodies (1 h, 37° C.) and examined using the Axioplan II fluorescence microscope (Carl Zeiss). Nuclear counter-staining was performed using a fluorescent DNA intercalant, 4′, 6′-diamidino-2-phenylindole (DAPI, Boehringer Mannheim).
To define a link between chemokines and CRMP2, the inventors first examined the localization of CRMP2 in Jurkat T-cells under CXCL12 signaling. They used two different anti-CRMP2 antibodies (anti-C-ter and anti-pep4) that recognize the full-length and cleaved products of CRMP2. […] This phenomenon of CRMP2 polarization was still observed after 30 minutes of treatment. […] In addition CRMP2 distribution to the uropod was concomitant with the re-localization of vimentin, which was quickly redistributed at the trailing edge of polarizing T-cells.

| Compound | decrease of CXCL12-induced CRMP2 re-localization (Jurkat cells treated with CXCL12 (100 ng/mL) in the presence of AMD3100) | increase of cells with polarized (asymmetrical) CRMP2 distribution (CXCL12 100 ng/mL, 2, 5 or 10 min, versus un-treated Jurkat T-cells) |
| --- | --- | --- |
| c1cc(CN2CCCNCCNCCCNCC2)ccc1CN1CCCNCCNCCCNCC1 [AMD3100] | 35% |  |
| CXCL12: chemokine, stromal-derived-factor-1, ligand of the CXCR4 receptor |  | 1.6 to 2 fold |
